Assay results: patent US20250188044A1 (HARBIN MEDISAN PHARMACEUTICAL CO., LTD., priority 2021, published 2025)
Read-outs that look alike come from different tables or passages of the source.

Experiments:
PPARα = biological target: T1, PPARα (Homo sapiens, UniProt Q07869); test: Gal4-PPARα(LBD) reporter gene agonistic activity assay in Cos-7 cells; format: cell-based; conditions: for EC50: Cos-7 cells, Gal4-PPARα(LBD) reporter, 16 h, 100% = GW7647 10 nM; for agonistic activity for PPARα (EC50 level, in words): Cos-7 reporter assay
T1 construct: hPPARα (279aa-580aa); expressed in transfected cells; host or cells: Cos-7
T1 sequence (Q07869 167-468 limits assumed): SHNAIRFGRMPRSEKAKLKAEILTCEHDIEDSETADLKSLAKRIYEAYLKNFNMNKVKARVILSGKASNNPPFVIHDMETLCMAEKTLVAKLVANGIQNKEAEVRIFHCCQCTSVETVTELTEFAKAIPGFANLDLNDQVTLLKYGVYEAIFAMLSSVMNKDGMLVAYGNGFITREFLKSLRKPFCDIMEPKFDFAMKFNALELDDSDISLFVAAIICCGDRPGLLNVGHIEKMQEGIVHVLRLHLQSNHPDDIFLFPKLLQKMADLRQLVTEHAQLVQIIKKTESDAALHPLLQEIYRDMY
Procedure: (§1) Cos-7 cells (African green monkey kidney fibroblasts, commonly used tool cells) were cultured in a 10 cm cell culture dish in a DMEM complete medium containing 10% fetal bovine serum. When the cells grew to a density of about 70%, the medium was replaced with a fresh medium for later transfection. […] The plasmid working solution was then added to the cell culture dish for cell transfection. […] Test compounds were prepared into appropriate test concentrations with a complete medium and then added to the 96-well plate. […] 10 μL of lysate was pipetted into a white opaque 384-well plate, and then 10 μL of reporter gene assay buffer (purchased from Shanghai Beyotime Biological Tech. Co., Ltd.) was added. The bioluminescence was detected by using a multimode microplate reader, and the corresponding half maximal effective concentration (EC50) value was calculated according to the detection value.

PPARδ = biological target: T2, PPARδ (Homo sapiens, UniProt Q03181); test: Gal4-PPARδ(LBD) reporter gene agonistic activity assay in Cos-7 cells; format: cell-based; conditions: for agonistic activity for PPARδ (EC50 level, in words): Cos-7 reporter assay
T2 construct: expressed in transfected cells; host or cells: Cos-7
T2 sequence (Q03181 139-441 limits assumed): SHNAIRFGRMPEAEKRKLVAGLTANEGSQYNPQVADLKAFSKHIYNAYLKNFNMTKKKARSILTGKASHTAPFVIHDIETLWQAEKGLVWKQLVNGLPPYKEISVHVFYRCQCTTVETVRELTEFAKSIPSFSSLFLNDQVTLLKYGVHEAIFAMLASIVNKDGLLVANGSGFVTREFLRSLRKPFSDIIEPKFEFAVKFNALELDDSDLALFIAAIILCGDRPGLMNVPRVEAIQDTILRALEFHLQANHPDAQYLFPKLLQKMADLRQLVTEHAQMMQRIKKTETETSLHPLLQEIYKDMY
Procedure: as §1

[1] = Metabolic stability in human liver microsomes; format: in vitro ADME; conditions: for half-life: human liver microsomes 0.75 mg/mL, NADPH, 0-60 min
Procedure: A 500 μM solution of the compound in acetonitrile was prepared and diluted to obtain a 1.5 μM drug working solution with a 0.1 M potassium phosphate solution. The drug working solution was co-incubated with a human liver microsome working solution at a final concentration of 0.75 mg/mL and an NADPH solution (final concentration: 550 μM), and the incubation was terminated by adding an acetonitrile solution at 0 min, 15 min, 30 min, 45 min, and 60 min. The residual amount of the compound that remained in the system at each time point was detected by using LC/MS. The absolute value k of the slope was determined by plotting the natural logarithm of the percentage of the residual amount of the compound with the time, and the calculation was performed according to the formula: T1/2 (half-life)=ln2/k=0.693/k.

[2] = Pharmacokinetic evaluation in mice; format: in vivo, C57BL/6J mice; conditions: for AUC(0-inf): read-out: Area under the curve AUC(0-∞); for half-life: read-out: Half-life T1/2 (converted); for Cmax: read-out: Peak concentration Cmax; for Tmax: read-out: Time-to-peak Tmax
Excerpt: Animals: 6 male C57BL/6J mice, SPF grade, sourced from the animal repository of Shanghai Medicilon research institution.
Grouping: Mice were divided into 2 groups of 3 mice each, one group was an oral administration group and the other group was an intravenous injection administration group. The dose in the oral administration group was 10 mpk, and the dose in the intravenous injection group was 2 mpk.
Experimental method: After the intravenous injection administration group was subjected to administration by injection via the tail vein, approximately 0.03 mL of blood was collected via the orbit at 0.083 h, 0.25 h, 0.5 h, 1 h, 2 h, 4 h, 8 h, and 24 h, and an ethylenediaminetetraacetic acid dipotassium salt was quickly added for anticoagulation and the blood was placed on ice after the blood collection. The mice in the oral administration group were fasted for 12 h before administration and fed 4 h after administration; after oral administration, approximately 0.03 mL of blood was collected via the orbit at 0.25 h, 0.5 h, 1 h, 2 h, 4 h, 6 h, 8 h, and 24 h, and an ethylenediaminetetraacetic acid dipotassium salt was quickly added for anticoagulation and the blood was placed on ice after the blood collection. All samples were centrifuged at 18,000 g for 7 min in a low-temperature centrifuge, and plasma was isolated. The content of the compound in the plasma was determined by LC-MS/MS-18, and relevant pharmacokinetic parameters were calculated from the plasma concentration data at different time points.

HepG2 cells = test: Lipid metabolism-associated gene expression of HepG2 cells (qPCR); format: cell-based, human; conditions: 8 nM, nM, and 200 nM, 12 h, vs. blank control (FIGS. 1 and 2)
Procedure: HepG2 cells (human hepatoma cells) were cultured in a 6-well cell culture plate and subjected to adherent culture overnight. […] The old medium was discarded and replaced with drug-containing medium of different concentrations (complete medium without the compound for the blank control group). After dosing, the cells were incubated for 12 h. The medium was discarded and total RNA was extracted by the phenol-chloroform method. After reverse transcription, the real-time quantitative fluorescent PCR experiment (RNA extraction, reverse transcription, quantitative PCR reagents were all purchased from Nanjing Vazyme Biotech Co., Ltd.) was performed using ACTB as an internal reference, and the expression of PDK4, ACADVL, and CPT1A, which are important genes in oxidative metabolism of lipids, was detected according to the steps in the product instructions (the primer sequences are shown in Table 7). […] Some other compounds of the present invention also have similar activity.

THP1 cells = test: LPS-induced inflammation-associated gene expression of THP1 cells (qPCR); format: cell-based, human; conditions: THP1 monocyte-derived macrophages, 8, 40, and 200 nM, 6 h, qPCR (FIG. 3)
Procedure: THP1 cells (human monocytes) were cultured in a 6-well cell culture plate in a medium containing 100 ng/mL phorbol ester (purchased from MCE) and stimulated for differentiation for 48 h.
The medium was replaced with a fresh complete medium for the blank control group, the medium was replaced with a complete medium containing […] LPS for the LPS group, and the medium was replaced with 8, 40, and 200 nM drug-containing media prepared with a complete medium containing […] LPS for the administration group. After 6 h of treatment, the medium was discarded. Quantitative PCR was performed according to the procedures in Example 207 to detect the expression of IL6 and IL12B, which are inflammatory factors playing an important role in inflammatory response (the primer sequences are shown in Table 8). […] Some other compounds of the present invention also have similar anti-inflammatory activity.

[3] = Pharmacokinetic evaluation in rats; format: in vivo, SD rats
Procedure: Animals: 6 male SD rats, SPF grade, sourced from the animal repository of Shanghai Medicilon research institution.
The dose in the oral administration group was 10 mpk, and the dose in the intravenous injection group was 2 mpk.
All samples were centrifuged at 18,000 g for 7 min in a low-temperature centrifuge, and plasma was isolated. The content of the compound in the plasma was determined by LC-MS/MS-18, and relevant pharmacokinetic parameters were calculated from the plasma concentration data at different time points.

[4] = male, C57BL/6J, mouse, plasma, 2 mg/kg, intravenous injection, 2 mpk
[5] = male, C57BL/6J, mouse, plasma, 10 mg/kg, oral administration, 10 mpk

In the case of `Cc1cc(Cn2ncn(-c3ccc(C(F)(F)F)cc3)c2=O)cc(C)c1OC(C)(C)C(=O)O` [Compound 57, 2-(2,6-Dimethyl-4-((5-oxo-4-(4-(trifluoromethyl)phenyl)-4,5-dihydro-1H-1,2,4-triazol-1-yl)methyl)phenoxy)-2-methylpropionic acid], the EC50 (PPARα) is reported as 26 nM, the “agonistic activity for PPARα (EC50 level, in words)” value (PPARα) is reported as “at nanomolar levels” and the EC50 (PPARδ) is reported as 2 nM. The “agonistic activity for PPARδ (EC50 level, in words)” value (PPARδ) was “at nanomolar levels”, the “metabolic stability in human liver microsomes (in words)” value ([1]; human liver microsomes) was “very good metabolic stability in human liver microsomes” and the half-life [1] was > 2 h. For the same molecule, the “pharmacokinetic properties (in words)” value [2] was “good pharmacokinetic properties”, the AUC(0-inf) [2, 4] was 4360 ± 522 ng·h/mL and the half-life [2, 4] was 9.53 ± 3.29 h. For the same molecule, the Cmax [2, 4] was 7240 ± 269 ng/mL, the Tmax [2, 4] was 0.08 h and the AUC(0-inf) [2, 5] was 18600 ± 2760 ng·h/mL. For the same molecule, the bioavailability ([2]; male, C57BL/6J, mouse, plasma, 10 mg/kg, oral administration, 10 mpk, read-out: Bioavailability F) was 87.3%, the half-life [2, 5] was 7.41 ± 2.05 h and the Cmax [2, 5] was 14000 ± 2050 ng/mL. For the same molecule, the Tmax [2, 5] was 0.25 h, the “expression of PDK4, ACADVL, and CPT1A” value (HepG2 cells) was “improve the expression of PDK4, ACADVL, and CPT1A in a dose-dependent manner with significance” and the “LPS-induced expression of IL6 and IL12B” value (THP1 cells) was “resist LPS-induced up-regulation of IL6 and IL12B of macrophages”.

For `Cc1cc(Cn2ncn(-c3ccc(OC(F)(F)F)cc3)c2=O)cc(C(F)(F)F)c1OC(C)(C)C(=O)O` [Compound 163, 2-Methyl-2-(2-methyl-4-((5-oxo-4-(4-(trifluoromethoxy)phenyl)-4,5-dihydro-1H-1,2,4-triazol-1-yl)methyl)-6-(trifluoromethyl)phenoxy)propionic acid], the EC50 (PPARα) was 35 nM, the “agonistic activity for PPARα (EC50 level, in words)” value (PPARα) was “at nanomolar levels” and the EC50 (PPARδ) was 6 nM. The “agonistic activity for PPARδ (EC50 level, in words)” value (PPARδ) was “at nanomolar levels”, the half-life [1] was > 2 h and the “pharmacokinetic properties (in words)” value [3] was “relatively good pharmacokinetic properties”. For the same molecule, the “Area under the curve AUC(0-∞)” value ([3]; intravenous injection, 2 mpk) was 15851.97 ± 3557.93 ng·h/mL, the “Half-life T1/2” value ([3]; intravenous injection, 2 mpk) was 12.71 ± 8.67 h and the “Peak concentration Cmax” value ([3]; intravenous injection, 2 mpk) was 10864.30 ± 719.85 ng/mL. The “Time-to-peak Tmax” value ([3]; intravenous injection, 2 mpk) was 0.08 ± 0.00 h, the “Area under the curve AUC(0-∞)” value ([3]; oral administration, 10 mpk) was 39483.83 ± 5363.60 ng·h/mL and the “Bioavailability F” value ([3]; oral administration, 10 mpk) was 53.24%. For the same molecule, the “Half-life T1/2” value ([3]; oral administration, 10 mpk) was 6.86 ± 0.34 h, the “Peak concentration Cmax” value ([3]; oral administration, 10 mpk) was 5474.28 ± 1232.94 ng/mL and the “Time-to-peak Tmax” value ([3]; oral administration, 10 mpk) was 0.25 ± 0.00 h.
